In US10745382B2 (BRISTOL-MYERS SQUIBB COMPANY, priority 2015, dated 2020) one finds IC50 data, which are given here for 21 compounds.

In one test the target is T1, PD-1/PD-L1 (Homo sapiens, UniProt Q9NZQ7).
T1 construct: made in house; host or cells: HEK293T
T1 sequence (Q9NZQ7 with tags, fused parts or gaps): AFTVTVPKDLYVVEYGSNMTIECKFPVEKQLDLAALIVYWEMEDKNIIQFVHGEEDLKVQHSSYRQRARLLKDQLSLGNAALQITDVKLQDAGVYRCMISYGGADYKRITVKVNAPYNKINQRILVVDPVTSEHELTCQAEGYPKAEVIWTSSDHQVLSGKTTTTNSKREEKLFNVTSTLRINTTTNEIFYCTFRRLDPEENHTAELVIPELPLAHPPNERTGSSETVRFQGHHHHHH
Briefly: PD-1/PD-L1 Homogenous Time-Resolved Fluorescence (HTRF) binding assay. The note with it: PD-L1-His 10 nM, PD-1-Ig 20 nM; numeric IC50; read-out: Range or IC50. In outline: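 Binding was measured by HTRF in dPBS with 0.1% BSA and 0.05% Tween-20. Detection used europium cryptate anti-Ig (1 nM final) and APC anti-His (20 nM final) added over the binding reaction.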
As to `Cc1c(COc2cc(OCc3cncc(C#N)c3)c(CN3CCCC[C@H]3C(=O)O)cc2Cl)cccc1-c1cccc(OCCCNC[C@H](O)CO)c1Cl` [Example 2007, (S)-1-(5-chloro-4-((2′-chloro-3′-(3-(((S)-2,3-dihydroxypropyl)amino)propoxy)-2-methyl-[1,1′-biphenyl]-3-yl)methoxy)-2-((5-cyanopyridin-3-yl)methoxy)benzyl)piperidine-2-carboxylic Acid], the IC50 (commonly the concentration that inhibits the measured activity by half) worked out at 0.88 nM. Turning to `CC(=O)NC1CCN(CCCOc2cccc(-c3cccc(COc4cc(O)c(CO)cc4Cl)c3C)c2Cl)C1` (stereo not drawn) [Example 2020, N-(1-(3-((2-chloro-3′-((2-chloro-5-hydroxy-4-(hydroxymethyl)phenoxy)methyl)-2′-methyl-[1,1′-biphenyl]-3-yl)oxy)propyl)pyrrolidin-3-yl)acetamide], the IC50 was determined as 63 nM.

The test is the same for the next values; noted with them: PD-L1-His 10 nM, PD-1-Ig 20 nM; value given as range class; read-out: Range or IC50.
As for `Cc1c(COc2cc(OCc3cncc(C#N)c3)c(CN[C@@](C)(CO)C(=O)O)cc2Cl)cccc1-c1cccc(OCCCNC[C@H](O)CO)c1Cl` [Example 2006, (S)-2-((5-chloro-4-((2′-chloro-3′-(3-(((S)-2,3-dihydroxypropyl)amino)propoxy)-2-methyl-[1,1′-biphenyl]-3-yl)methoxy)-2-((5-cyanopyridin-3-yl)methoxy)benzyl)amino)-3-hydroxy-2-methylpropanoic Acid], the IC50 was 0.21 to 10 nM. As for `Cc1c(COc2cc(OCc3cncc(C#N)c3)c(CN[C@](C)(CO)C(=O)O)cc2Cl)cccc1-c1cccc(OCCCN2CCC[C@H](C(=O)O)C2)c1Cl` [Example 2008, (S)-1-(3-((3′-((4-((((R)-2-carboxy-1-hydroxypropan-2-yl)amino)methyl)-2-chloro-5-((5-cyanopyridin-3-yl)methoxy)phenoxy)methyl)-2-chloro-2′-methyl-[1,1′-biphenyl]-3-yl)oxy)propyl)piperidine-3-carboxylic Acid], the IC50 lay within 0.21 to 10 nM. The same measure, in the same setting: next, `Cc1c(COc2cc(OCc3cncc(C#N)c3)c(CO)cc2Cl)cccc1-c1cccc(OCCCN2CCC[C@H](C(=O)O)C2)c1Cl` [Example 2009, (S)-1-(3-((2-chloro-3′-((2-chloro-5-((5-cyanopyridin-3-yl)methoxy)-4-(hydroxymethyl)phenoxy)methyl)-2′-methyl-[1,1′-biphenyl]-3-yl)oxy)propyl)piperidine-3-carboxylic Acid]: 10 to 100 nM; `Cc1c(COc2cc(OCc3cncc(C#N)c3)c(CNCCc3ccncc3)cc2Cl)cccc1-c1cccc(OCCCNCCc2ccncc2)c1Cl` [Example 2010, 5-((4-chloro-5-((2′-chloro-2-methyl-3′-(3-((2-(pyridin-4-yl)ethyl)amino)propoxy)-[1,1′-biphenyl]-3-yl)methoxy)-2-(((2-(pyridin-4-yl)ethyl)amino)methyl)phenoxy)methyl)nicotinonitrile]: 0.21 to 10 nM.

As for `Cc1c(COc2cc(OCc3cncc(C#N)c3)c(CN3CCN(CCO)CC3)cc2Cl)cccc1-c1cccc(OCCCN2CCN(CCO)CC2)c1Cl` [Example 2011, 5-((4-chloro-5-((2′-chloro-3′-(3-(4-(2-hydroxyethyl)piperazin-1-yl)propoxy)-2-methyl-[1,1′-biphenyl]-3-yl)methoxy)-2-((4-(2-hydroxyethyl)piperazin-1-yl)methyl)phenoxy)methyl)nicotinonitrile], the IC50 lay within 0.21 to 10 nM.

Turning to `Cc1c(COc2cc(OCc3cncc(C#N)c3)c(CN[C@](C)(CO)C(=O)O)cc2Cl)cccc1-c1cccc(OCCCN2CC(N(C)C)C2)c1Cl` [Example 2013, (R)-2-((5-chloro-4-((2′-chloro-3′-(3-(3-(dimethylamino)azetidin-1-yl)propoxy)-2-methyl-[1,1′-biphenyl]-3-yl)methoxy)-2-((5-cyanopyridin-3-yl)methoxy)benzyl)amino)-3-hydroxy-2-methylpropanoic Acid], the IC50 lay within 0.21 to 10 nM. Still for that read-out and setting: next, `Cc1c(COc2cc(O)c(CO)cc2Cl)cccc1-c1cccc(OCCCN2CC(N(C)C)C2)c1Cl` [Example 2014, 4-chloro-5-((2′-chloro-3′-(3-(3-(dimethylamino)azetidin-1-yl)propoxy)-2-methyl-[1,1′-biphenyl]-3-yl)methoxy)-2-(hydroxymethyl)phenol]: 10 to 100 nM; `Cc1c(COc2cc(OCc3cncc(C#N)c3)c(CO)cc2Cl)cccc1-c1cccc(OCCCN2CC(N(C)C)C2)c1Cl` [Example 2015, 5-((4-chloro-5-((2′-chloro-3′-(3-(3-(dimethylamino)azetidin-1-yl)propoxy)-2-methyl-[1,1′-biphenyl]-3-yl)methoxy)-2-(hydroxymethyl)phenoxy)methyl)nicotinonitrile]: 0.21 to 10 nM; `Cc1c(COc2cc(OCc3cncc(C#N)c3)c(CN[C@](C)(CO)C(=O)O)cc2Cl)cccc1-c1cccc(OCCCN2CCCCC2)c1Cl` [Example 2016, (R)-2-((5-chloro-4-((2′-chloro-2-methyl-3′-(3-(piperidin-1-yl)propoxy)-[1,1′-biphenyl]-3-yl)methoxy)-2-((5-cyanopyridin-3-yl)methoxy)benzyl)amino)-3-hydroxy-2-methylpropanoic Acid]: 0.21 to 10 nM. Same read-out and setting: with `Cc1c(COc2cc(O)c(CO)cc2Cl)cccc1-c1cccc(OCCCN2CCCCC2)c1Cl` [Example 2017, 4-chloro-5-((2′-chloro-2-methyl-3′-(3-(piperidin-1-yl)propoxy)-[1,1′-biphenyl]-3-yl)methoxy)-2-(hydroxymethyl)phenol] the figure was 10 to 100 nM; with `Cc1c(COc2cc(OCc3cncc(C#N)c3)c(CO)cc2Cl)cccc1-c1cccc(OCCCN2CCCCC2)c1Cl` [Example 2018, 5-((4-chloro-5-((2′-chloro-2-methyl-3′-(3-(piperidin-1-yl)propoxy)-[1,1′-biphenyl]-3-yl)methoxy)-2-(hydroxymethyl)phenoxy)methyl)nicotinonitrile], 0.21 to 10 nM.

As for `CC(=O)NC1CCN(CCCOc2cccc(-c3cccc(COc4cc(OCc5cncc(C#N)c5)c(CN[C@](C)(CO)C(=O)O)cc4Cl)c3C)c2Cl)C1` (stereo partly drawn) [Example 2019, (2R)-2-((4-((3′-(3-(3-acetamidopyrrolidin-1-yl)propoxy)-2′-chloro-2-methyl-[1,1′-biphenyl]-3-yl)methoxy)-5-chloro-2-((5-cyanopyridin-3-yl)methoxy)benzyl)amino)-3-hydroxy-2-methylpropanoic Acid], the IC50 lay within 0.21 to 10 nM. The same measure, in the same setting: with `CC(=O)NC1CCN(CCCOc2cccc(-c3cccc(COc4cc(OCc5cncc(C#N)c5)c(CO)cc4Cl)c3C)c2Cl)C1` (stereo not drawn) [Example 2021, N-(1-(3-((2-chloro-3′-((2-chloro-5-((5-cyanopyridin-3-yl)methoxy)-4-(hydroxymethyl)phenoxy)methyl)-2′-methyl-[1,1′-biphenyl]-3-yl)oxy)propyl)pyrrolidin-3-yl)acetamide] the figure was 0.21 to 10 nM; with `CC(=O)N[C@@H]1CCN(CCCOc2cccc(-c3cccc(COc4cc(OCc5cncc(C#N)c5)c(CN[C@](C)(CO)C(=O)O)cc4Cl)c3C)c2Cl)C1` [Example 2022, (R)-2-((4-((3′-(3-((R)-3-acetamidopyrrolidin-1-yl)propoxy)-2′-chloro-2-methyl-[1,1′-biphenyl]-3-yl)methoxy)-5-chloro-2-((5-cyanopyridin-3-yl)methoxy)benzyl)amino)-3-hydroxy-2-methylpropanoic Acid], 0.21 to 10 nM; with `Cc1c(COc2cc(OCc3cncc(C#N)c3)c(CN[C@](C)(CO)C(=O)O)cc2Cl)cccc1-c1cccc(OCCCN[C@](C)(CO)C(=O)O)c1Cl` [Example 2023, (R)-2-((3-((3′-((4-((((R)-2-carboxy-1-hydroxypropan-2-yl)amino)methyl)-2-chloro-5-((5-cyanopyridin-3-yl)methoxy)phenoxy)methyl)-2-chloro-2′-methyl-[1,1′-biphenyl]-3-yl)oxy)propyl)amino)-3-hydroxy-2-methylpropanoic Acid], 0.21 to 10 nM.

With `Cc1c(COc2cc(OCc3cncc(C#N)c3)c(CN[C@](C)(CO)C(=O)O)cc2Cl)cccc1-c1cccc(OCCCN(C)C[C@H](O)CO)c1Cl` [Example 2024, (R)-2-((5-chloro-4-((2′-chloro-3′-(3-(((S)-2,3-dihydroxypropyl)(methyl)amino)propoxy)-2-methyl-[1,1′-biphenyl]-3-yl)methoxy)-2-((5-cyanopyridin-3-yl)methoxy)benzyl)amino)-3-hydroxy-2-methylpropanoic Acid], the IC50 lay in the range of 0.21 to 10 nM. The same measure, in the same setting: next, `Cc1c(COc2cc(OCc3cncc(C#N)c3)c(CO)cc2Cl)cccc1-c1cccc(OCCCN(C)C[C@H](O)CO)c1Cl` [Example 2025, (S)-5-((4-chloro-5-((2′-chloro-3′-(3-((2,3-dihydroxypropyl)(methyl)amino)propoxy)-2-methyl-[1,1′-biphenyl]-3-yl)methoxy)-2-(hydroxymethyl)phenoxy)methyl)nicotinonitrile]: 0.21 to 10 nM; `COC(=O)C1CCN(CCCOc2cccc(-c3cccc(COc4cc(OCc5cncc(C#N)c5)c(CNC[C@H](O)CO)cc4Cl)c3C)c2Cl)CC1` [Example 2027, (S)-methyl 1-(3-((2-chloro-3′-((2-chloro-5-((5-cyanopyridin-3-yl)methoxy)-4-(((2,3-dihydroxypropyl)amino)methyl)phenoxy)methyl)-2′-methyl-[1,1′-biphenyl]-3-yl)oxy)propyl)piperidine-4-carboxylate]: 0.21 to 10 nM; `Cc1c(COc2cc(OCc3cncc(C#N)c3)c(CNC[C@H](O)CO)cc2Cl)cccc1-c1cccc(OCCCN2CC(N(C)C)C2)c1Cl` [Example 2028, (S)-5-((4-chloro-5-((2′-chloro-3′-(3-(3-(dimethylamino)azetidin-1-yl)propoxy)-2-methyl-[1,1′-biphenyl]-3-yl)methoxy)-2-(((2,3-dihydroxypropyl)amino)methyl)phenoxy)methyl)nicotinonitrile]: 0.21 to 10 nM.
